Test results: the NIST ThermoML archive (doi:10.1021/je060107n)

Experiment: mn = molality of the nth substance listed, in mol/kg
Details: 101 kPa, Liquid; for mass density: Pycnometric method; for viscosity: Capillary tube (Ostwald / Ubbelohde) method; for speed of sound: Linear variable-path acoustic interferometer

O=[N+]([O-])[O-].O=[N+]([O-])[O-].[Mg+2] [magnesium nitrate] + O
Details | mass density [kg/m3] | speed of sound [m/s] | viscosity [mPa·s]
314.7 K, m1 = 0.0528 | 996.94 | – | –
315 K, m1 = 0.0145 | 992.8 | – | –
315.05 K, m1 = 1.525 | 1135.2 | – | –
315.1 K, m1 = 3.501 | 1288.9 | – | –
315.15 K, m1 = 3.757 | 1305.4 | – | –
315.25 K, m1 = 0.9898 | 1088.5 | – | –
315.25 K, m1 = 1.262 | 1112.4 | – | –
315.3 K, m1 = 3.17 | 1270.8 | – | –
315.6 K, m1 = 4.728 | 1367.6 | – | –
315.8 K, m1 = 5.134 | 1391.1 | – | –
315.95 K, m1 = 0.3405 | 1025.4 | – | –
316.1 K, m1 = 0.896 | 1079 | – | –
316.1 K, m1 = 2.793 | 1238.2 | – | –
316.15 K, m1 = 1.827 | 1162.1 | – | –
316.25 K, m1 = 4.039 | 1322.3 | – | –
316.35 K, m1 = 4.97 | 1380.1 | – | –
316.45 K, m1 = 5.282 | 1399.6 | – | –
316.75 K, m1 = 0.6173 | 1052.2 | – | –
317.15 K, m1 = 0.0528 | 995.93 | – | –
317.15 K, m1 = 3.501 | 1287.7 | – | –
317.25 K, m1 = 1.525 | 1134 | – | –
317.25 K, m1 = 3.096 | 1259.7 | – | –
317.35 K, m1 = 2.493 | 1213.8 | – | –
317.35 K, m1 = 3.757 | 1304.1 | – | –
317.5 K, m1 = 0.9898 | 1087.3 | – | –
317.5 K, m1 = 1.262 | 1111.2 | – | –
317.55 K, m1 = 3.118 | 1260.5 | – | –
317.55 K, m1 = 4.285 | 1337.9 | – | –
317.75 K, m1 = 2.131 | 1186 | – | –
317.85 K, m1 = 0.2491 | 1016.9 | – | –
317.95 K, m1 = 4.883 | 1372.7 | – | –
318.15 K, m1 = 0.0145 | – | 1540.2 | 0.6082
318.15 K, m1 = 0.0528 | – | 1541.4 | 0.62
318.15 K, m1 = 0.2491 | – | 1554.4 | 0.655
318.15 K, m1 = 0.3405 | – | 1552.3 | –
318.15 K, m1 = 0.5931 | – | – | 0.7284
318.15 K, m1 = 0.6173 | – | 1572 | –
318.15 K, m1 = 0.896 | – | 1590 | –
318.15 K, m1 = 0.9898 | – | 1596.3 | 0.8367
318.15 K, m1 = 1.262 | – | 1612.6 | 0.9225
318.15 K, m1 = 1.525 | – | 1629.5 | –
318.15 K, m1 = 1.827 | 1160.9 | 1650.5 | 1.117
318.15 K, m1 = 2.131 | – | 1668.7 | 1.245
318.15 K, m1 = 2.493 | – | 1689.3 | –
318.15 K, m1 = 2.584 | – | – | 1.473
318.15 K, m1 = 2.793 | – | 1708.7 | –
318.15 K, m1 = 3.096 | – | – | 1.772
318.15 K, m1 = 3.118 | – | 1727.2 | –
318.15 K, m1 = 3.17 | – | 1733.9 | –
318.15 K, m1 = 3.329 | – | – | 1.935
318.15 K, m1 = 3.501 | – | 1748.8 | –
318.15 K, m1 = 3.704 | – | – | 2.216
318.15 K, m1 = 3.757 | – | 1761.7 | –
318.15 K, m1 = 4.039 | – | – | 2.545
318.15 K, m1 = 4.051 | 1321.2 | 1776 | –
318.15 K, m1 = 4.285 | – | 1787.8 | –
318.15 K, m1 = 4.403 | – | 1794.4 | –
318.15 K, m1 = 4.728 | – | – | 3.456
318.15 K, m1 = 4.883 | – | 1818.4 | –
318.15 K, m1 = 4.907 | – | – | 3.76
318.15 K, m1 = 5.134 | – | 1832.8 | –
318.15 K, m1 = 5.282 | – | – | 4.426
318.25 K, m1 = 3.704 | 1300.4 | – | –
318.35 K, m1 = 2.584 | 1221.6 | – | –
318.4 K, m1 = 0.896 | 1077.9 | – | –
318.5 K, m1 = 4.97 | 1378.6 | – | –
318.7 K, m1 = 1.694 | 1148.1 | – | –
318.8 K, m1 = 4.403 | 1344 | – | –
318.8 K, m1 = 5.282 | 1398.1 | – | –
318.9 K, m1 = 0.5931 | 1048.4 | – | –
319.05 K, m1 = 0.6173 | 1051.1 | – | –
319.35 K, m1 = 1.525 | 1132.8 | – | –
319.35 K, m1 = 3.757 | 1302.8 | – | –
319.45 K, m1 = 3.118 | 1259.2 | – | –
319.5 K, m1 = 3.17 | 1268.1 | – | –
319.55 K, m1 = 0.0528 | 994.98 | – | –
319.55 K, m1 = 1.262 | 1110.2 | – | –
319.9 K, m1 = 2.131 | 1184.8 | – | –
319.9 K, m1 = 4.728 | 1364.8 | – | –
319.95 K, m1 = 0.0145 | 990.65 | – | –
320.2 K, m1 = 5.134 | 1388.4 | – | –
320.25 K, m1 = 2.793 | 1235.8 | – | –
320.3 K, m1 = 1.827 | 1159.7 | – | –
320.3 K, m1 = 4.039 | 1319.5 | – | –
320.65 K, m1 = 0.2491 | 1014.7 | – | –
320.85 K, m1 = 1.694 | 1146.9 | – | –
320.9 K, m1 = 0.3405 | 1023.3 | – | –
320.9 K, m1 = 5.282 | 1396.6 | – | –
321.25 K, m1 = 0.5931 | 1047.4 | – | –
321.35 K, m1 = 3.096 | 1257.2 | – | –
321.6 K, m1 = 2.493 | 1211.3 | – | –
321.75 K, m1 = 0.9898 | 1085.2 | – | –
321.8 K, m1 = 4.285 | 1335.1 | – | –
321.9 K, m1 = 4.728 | 1363.5 | – | –
321.95 K, m1 = 0.0528 | 993.94 | – | –
322.1 K, m1 = 0.0145 | 989.61 | – | –
322.2 K, m1 = 4.883 | 1370 | – | –
322.25 K, m1 = 2.793 | 1234.5 | – | –
322.35 K, m1 = 2.584 | 1219.2 | – | –
322.45 K, m1 = 3.704 | 1297.7 | – | –
322.45 K, m1 = 4.039 | 1318.2 | – | –
322.75 K, m1 = 0.2491 | 1013.6 | – | –
322.75 K, m1 = 4.051 | 1318.5 | – | –
322.8 K, m1 = 4.97 | 1375.7 | – | –
323.05 K, m1 = 4.403 | 1341.3 | – | –
323.15 K, m1 = 0.0145 | – | 1545.7 | 0.5591
323.15 K, m1 = 0.0528 | – | 1548 | 0.5708
323.15 K, m1 = 0.2491 | – | 1559.2 | 0.6023
323.15 K, m1 = 0.3405 | – | 1563.6 | –
323.15 K, m1 = 0.5931 | – | – | 0.6703
323.15 K, m1 = 0.6173 | – | 1576.6 | –
323.15 K, m1 = 0.896 | – | 1593.9 | –
323.15 K, m1 = 0.9898 | – | 1600.3 | 0.7676
323.15 K, m1 = 1.262 | – | 1614.9 | 0.8482
323.15 K, m1 = 1.525 | – | 1631.4 | –
323.15 K, m1 = 1.827 | – | 1651.2 | 1.028
323.15 K, m1 = 2.131 | – | 1667.3 | 1.145
323.15 K, m1 = 2.493 | – | 1689.2 | –
323.15 K, m1 = 2.584 | – | – | 1.353
323.15 K, m1 = 2.793 | – | 1707.5 | –
323.15 K, m1 = 3.096 | – | – | 1.629
323.15 K, m1 = 3.118 | – | 1725.2 | –
323.15 K, m1 = 3.17 | – | 1731.8 | –
323.15 K, m1 = 3.329 | – | – | 1.772
323.15 K, m1 = 3.501 | – | 1744 | –
323.15 K, m1 = 3.704 | – | – | 2.028
323.15 K, m1 = 3.757 | – | 1758.7 | –
323.15 K, m1 = 4.039 | – | – | 2.319
323.15 K, m1 = 4.051 | – | 1770.9 | –
323.15 K, m1 = 4.285 | – | 1783.2 | –
323.15 K, m1 = 4.403 | – | 1789.3 | –
323.15 K, m1 = 4.728 | – | – | 3.107
323.15 K, m1 = 4.883 | – | 1811.5 | –
323.15 K, m1 = 4.907 | – | – | 3.418
323.15 K, m1 = 5.134 | – | 1828.2 | –
323.15 K, m1 = 5.282 | 1395.1 | – | 3.975
323.4 K, m1 = 0.6173 | 1049 | – | –
323.5 K, m1 = 1.525 | 1130.6 | – | –
323.5 K, m1 = 3.757 | 1300.1 | – | –
323.55 K, m1 = 3.17 | 1265.4 | – | –
323.6 K, m1 = 3.118 | 1256.7 | – | –
323.75 K, m1 = 1.262 | 1107.8 | – | –
323.95 K, m1 = 0.9898 | 1084 | – | –
323.95 K, m1 = 2.131 | 1182.5 | – | –
324.25 K, m1 = 1.827 | 1157.4 | – | –
324.45 K, m1 = 5.134 | 1385.4 | – | –
324.95 K, m1 = 1.694 | 1144.5 | – | –
325.25 K, m1 = 5.282 | 1393.7 | – | –
